Experimental data published in ChEMBL document CHEMBL3301546, “MMV Malaria Box yeast growth screening”.

Columns and labels:
Type in all cases: functional
[1] = system: Saccharomyces cerevisiae; experiment: (§1) MMV: Growth assays were conducted using the prototrophic S. cerevisiae strain JHY222. Each MMV compound (0.1 mM) was tested in rich media containing dextrose as a carbon source (Yeast Extract, Peptone, Dextrose; YPD). The growth rate in the presence of each MMV compound was calculated as follows: (i) the first 10 OD readings were averaged and subtracted from all OD readings of the corresponding curve to set the baseline of the growth curve to zero, and (ii) the area under the curve (AUC) was then calculated as the sum of all OD readings. […] A relative growth value was calculated as follows: AUC(DRUG) - AUC(DMSO)/AUC(DMSO); where AUC(DMSO) represents growth measured in a DMSO control well that was on the same microtiter plate of the drug-treated culture.
[2] = system: Saccharomyces cerevisiae; experiment: as §1, with “minimal” for “rich”, “Nitrogen Base,” for “Extract, Peptone,”, “YNBD).” for “YPD).”
[3] = system: Saccharomyces cerevisiae; experiment: as §1, with “minimal” for “rich”, “ethanol and glycerol” for “dextrose”, “as” for “as a”, “sources” for “source”, “Nitrogen Base, Ethanol, Glycerol; YNBEG).” for “Extract, Peptone, Dextrose; YPD).”

SMILES	Relative Growth [1]	Relative Growth [2]	Relative Growth [3]
Cc1cccc(Nc2nc(N)c3ccccc3n2)c1.Cl	-0.0941	0.1313	0.3952
COc1ccc(C2c3ccc4ccccc4c3Oc3ncn(CCCN(C)C)c(=N)c32)cc1 (configuration not stated)	-0.012	-0.0503	-0.0587
Cc1ccc(NC(=O)Nc2cccc(Cl)c2)cc1F	-0.0033	0.0155	0.0189
CCCCc1c(C)nc2c(OC)cccc2c1O	-0.0392	-0.0292	0.0348
O=C1c2ccc3c4c(ccc(c24)C(=O)N1CCCCO)C(=O)N(CCCCO)C3=O	-0.136	-0.7093	-1.0287
CCCc1c(C)nc2ccc(Br)cc2c1O	0.0054	-0.0231	-0.1859
COCCNC(=O)c1ccc(OC2CCN(Cc3ccc(F)c(F)c3)CC2)c(Cl)c1	0.1615	-0.0136	0.0235
CC(=O)c1sc(NC(=O)Nc2ccc(C)cc2C)nc1C	-0.0731	-0.0182	0.0857
CCCN(CCC)CC(O)COc1ccccc1C(=O)Nc1ccccc1 (configuration not stated)	-0.0395	0.0118	0.0655
Cc1cc(Nc2ccc(Cl)cc2)n2nc(C(F)(F)F)nc2n1	0.0103	0.0221	-0.0099
CCCn1c(=N)c(C(=O)NC2CCCCC2)cc2c(=O)n3cccc(C)c3nc21	-0.0177	0.1028	0.0799
Cc1ccc(CSCc2ccc(C(=O)NC3CC3)o2)cc1	0.0613	-0.0643	-0.1982
Cc1cc(Nc2ccc3ccccc3c2)n2ncnc2n1	0.0302	0.0095	-0.024
Cc1c(C)n(CC(O)CNC2CCCCC2C)c2ccccc12 (configuration not stated)	-0.0794	-0.0308	-0.2246
CN(C)CCCNc1c2ccccc2nc2ccccc12	0.0036	-0.0065	0.0887
O=C1CC(O)(C(F)(F)C(F)(F)F)Oc2ccccc21 (configuration not stated)	-0.0644	-0.042	-0.6809
COc1ccc(N2CCN(C(CNC(=O)C3CCCCC3)c3ccc4c(c3)OCO4)CC2)cc1 (configuration not stated)	-0.0299	-0.0986	-0.124
O=C(NCCCN1CCC(N2CCCCC2)CC1)C1=Cc2cc(Br)ccc2OC1	-0.0702	-0.0044	-0.1063
COc1ccc(C)c2sc(N(Cc3cccnc3)C(=O)c3ccc(C#N)cc3)nc12	-0.0087	-0.0341	0.0255
CCOC(=O)c1cnc2c(C)cccc2c1Nc1ccc(C(C)=O)cc1	-0.0046	-0.0028	-0.0453
COc1ccc(-c2nonc2NC(=O)c2cccc(C)c2)cc1OC	-0.0571	0.0614	-0.0764
CCOc1ccc(-c2nc(NC(=O)c3cccc(S(C)(=O)=O)c3)sc2C)cc1	0.0098	0.0499	0.1015

SMILES	Relative Growth [1]	Relative Growth [2]	Relative Growth [3]
CCN(CC)CCn1c(=N)n(CC(O)c2ccc(Cl)c(Cl)c2)c2ccccc21.Cl (configuration not stated)	-0.0663	0.0285	0.1274
CCCOCc1cc(CN2CCN(c3cccc(Cl)c3)CC2)c(O)c2ncccc12	-0.0331	-0.0021	-0.1694
Cc1ccc(C(=O)c2oc3ccc4c(C)cc(=O)oc4c3c2C)cc1	-0.0457	-0.0077	-0.1519
COc1ccccc1CNC(=O)C1c2ccccc2C(=O)N(CC(C)C)C1c1cccs1 (configuration not stated)	-0.1327	-0.0764	-0.0424
Cc1cccc(N2C(=O)C3C(C2=O)C2(c4ccccc4)C(=O)C3(c3ccccc3)C(c3ccc4c(c3)OCO4)=C2c2ccc3c(c2)OCO3)c1 (configuration not stated)	-0.0089	-0.0077	-0.1627
O=c1nc(C=Cc2ccc(Br)cc2)oc2ccccc12	-0.0705	0.007	0.0189
CCN1CCCC1CNc1[nH]cnc2c3cc(Cl)ccc3nc1-2 (configuration not stated)	-0.0942	-0.0942	-0.3246
FC(F)(F)c1ccc(Nc2nnnc3ccccc23)cc1	-0.97	-0.0492	0.0852
CC1CCCCN1CCCNC(=O)c1ccc2c(c1)sc1nc(-c3ccc(F)cc3)cn12 (configuration not stated)	0.083	0.1056	-0.161
CCN1CCN(c2cc(C)c3cc(NC(=O)c4ccc(OC)c(OC)c4)ccc3n2)CC1	-0.0203	-0.0518	-0.0282
OC(CNC1CCCCC1)Cn1c2ccc(I)cc2c2cc(I)ccc21 (configuration not stated)	0.0125	0.4002	-0.0994
CNCCCNc1ccnc2cc(Cl)ccc12	0.1016	0.075	0.188
Cc1ccc(-c2cc3c(SCC(=O)Nc4cc(C(F)(F)F)ccc4Cl)nccn3n2)cc1	0.0079	0.117	-0.0739
CC(C)(C)c1ccc2c(c1)CN(Cc1ccc(Cl)cc1)CO2	-0.9993	-0.1149	-0.1101
Cc1ccnc(NC(c2cccc(OCc3ccccc3)c2)c2ccc3cccnc3c2O)c1 (configuration not stated)	0	0.0892	-0.3469
O=C(Nc1ccc(F)c(Cl)c1)Nc1ccc(Cl)c(Cl)c1	-0.0686	0.0832	-0.9478
O=C(Nc1ccccc1O)c1ccc(-c2ccc(Cl)cc2Cl)o1	0.0802	0.0136	-0.098
CCOc1c(Br)cc(C2C(C(=O)OC)=CN(C)C=C2C(=O)OC)cc1OC	-0.0344	0.0663	-0.0572
O=C(NCC(c1ccsc1)N1CCCCCC1)c1ccc(C(F)(F)F)cc1 (configuration not stated)	-0.0232	0.0719	0.0335
OC(Cn1nnc2ccccc21)Cn1c2ccc(Br)cc2c2cc(Br)ccc21 (configuration not stated)	0.0859	0.0887	0.1229
CCCCOC(=O)c1ccc(Nc2cc(C)nc3ccc(OC)cc23)cc1	-0.1158	-0.0919	-0.3112
Cc1sc(NC(=O)c2ccco2)c(C(c2cccnc2)N2CCC(Cc3ccccc3)CC2)c1C (configuration not stated)	-0.0153	0.0125	0.0498
